Laboratory results published in patent EP4786487A1, “PEPTIDE” (Peptidream Inc, priority 2023, dated 2025).
Starred links: 1 amine or outer side, 2 acyl side, 3 side chain; linkers in the order of their positions; H or OH if unused. Positions of bridges follow the written chain, without caps; N, C: chain ends. Non-standard residues stand in square brackets, D forms with d. Residues, ends and D or L forms follow the SMILES beside them. Phe(3-OCH2COOH) = N[C@@H](Cc1cccc(OCC(=O)O)c1)C(=O)O; Phe(4-COOH) = N[C@@H](Cc1ccc(C(=O)O)cc1)C(=O)O; Gly(N(CH2)3COOH) = O=C(O)CCCNCC(=O)O; X1 = CCCCCCC[C@H](N[*:1])C(=O)[*:2]; NMeF = CN[C@@H](Cc1ccccc1)C(=O)O; NMeA = CN[C@@H](C)C(=O)O

Key:
GDF-11 [1] = target: T1, GDF-11 (Homo sapiens, UniProt O95390); test: Reporter gene assay for myostatin signaling in HEK-Blue TGF-β Cells, GDF-11; type: cell-based; details: GDF-11 3 ng/mL
T1 construct: purchased R&D systems 1958-GD-G8/CF
T1 sequence (O95390 299-407): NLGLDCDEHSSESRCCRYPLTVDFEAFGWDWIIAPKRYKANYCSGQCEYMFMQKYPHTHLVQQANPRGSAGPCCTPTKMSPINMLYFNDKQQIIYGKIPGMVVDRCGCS
Protocol: In this Example, the in vitro activity of the peptide Myostatin_99_v145 (SEQ ID NO: 30) was evaluated using a reporter gene assay for myostatin signaling.
HEK-Blue (trademark) TGF-β Cells (hkb-tgfbv2, InvivoGen) were cultured in DMEM High glucose GlutaMAX (10569010, Thermo) containing 10% FBS (Heat-inactivated FBS QUALIFIED, 10270-106, Gibco), […] Normocin (ant-nr-05, InvivoGen), […] Zeocin (ant-zn-05, InvivoGen), and 50 µg/mL Gentamicin (11980-14, Nacalai Tesque). The cultured HEK-Blue (trademark) TGF-β Cells were suspended in an assay medium containing DMEM High glucose GlutaMAX, 50 µg/mL Gentamicin, and 1% bovine serum albumin (A7030, Sigma). The cells were seeded at 4 × 10^4 cells/well onto a 96-well plate (356461, Corning), namely BioCoat poly-D-lysine multi-well plate, and allowed to stand for 30 min. […]
To each well of a UV-Star µClear 96-well (655801, Greiner), 180 µL of Detection buffer (prepared by diluting, with 17.64 mL of distilled water, 180 µL of QUANTI-Blue buffer and 180 µL of QUANTI-Blue solution) was dispensed. […] The plate was covered and incubated in a CO2 incubator for 3 to 5 hours, and absorbance was measured (Envision 2104, PerkinElmer, 620 nm/bp 40 nm). Based on the absorbance, IC50 values of the peptide were calculated using software (Prism 9, GraphPad).

GDF-11 [2] = target: T1, GDF-11; test: Reporter gene assay for myostatin signaling in HepG2 cell line, Evaluation Procedure (1), GDF-11 inhibition; type: cell-based; details: Method A: GDF-11 10 ng/mL; read-out: IC50 (Luciferase) GDF-11 HepG2
Procedure, shortened: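 IC50 derived from One-Glo luciferase luminescence after 20–24 h at 37 °C. Peptides titrated 4-fold at 0.006–100 nmol/L against myostatin or 0.12–2000 nmol/L against GDF-11 in HepG2 cells carrying a transfected CAGA12-luciferase reporter, kept in 0.1% BSA EMEM.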

- IC50 (GDF-11 [1]; read-out: IC50 (nmol/L) GDF11): 61.2 nmol/L
- IC90 (GDF-11 [1]; read-out: IC90 (nmol/L) GDF11): 702 nmol/L
- IC50 (GDF-11 [2]): 414 nM
Structure (SMILES): CCCCCCC[C@@H]1NC(=O)[C@H](Cc2ccccc2)N(C)C(=O)[C@H](CCCNC(=N)N)NC(=O)[C@H](Cc2ccc(C(=O)O)cc2)NC(=O)[C@H](Cc2cccc(OCC(=O)O)c2)NC(=O)[C@H](C)N(C)C(=O)[C@H]([C@@H](C)CC)NC(=O)[C@H](Cc2ccccc2)N(C)C(=O)[C@H](Cc2ccc(O)cc2)NC(=O)[C@H](Cc2c[nH]c3ccccc23)NC(=O)[C@H](C)NC(=O)CN(CCCC(=O)O)C(=O)CSC[C@H](C(=O)O)NC(=O)[C@H](Cc2ccccc2)N(C)C(=O)[C@H](C)N(C)C1=O [Myostatin_99_v145] ({CH2CO}-[Gly(N(CH2)3COOH)]AWY[NMeF]I[NMeA][Phe(3-OCH2COOH)][Phe(4-COOH)]R[NMeF][X1][NMeA][NMeF][dC]-OH; thioether N-15)
